Experiments:
E. coli ATCC 10536 = experiment: BCT test (bacterial contact time), 45 s, log reduction / effect fraction; CI by Compusyn; format: cell-based, Escherichia coli; conditions: 45 s, in 20% EtOH
Description: (§1) E. coli, S. aureus, P. aeruginosa, and S. enterica: Separate suspensions of the E. coli ATCC 10536 strain, S. aureus ATCC 6538 strain, Pseudomonas aeruginosa ATCC 15442 strain, and the Salmonella enterica ATCC 10708 strain were prepared as follows: Stock cultures (stored at −80° C.) were thawed and sub-cultured onto Tryptic Soy Agar (TSA) agar plate media, and incubated at 37° C. for 24 h to obtain single colonies. Single colonies of the primary cultures were streaked onto TSA plates and incubated at 37° for 24 h to generate secondary cultures. Single colonies of secondary cultures picked and used to inoculate into 50 mL of TSB broth. The inoculated TSB broth was incubated at 37° C. at 180 rpm for 18 h. Aliquots (0.5 ml) of the 18 h culture were inoculated into 50 ml of fresh TSB broth, and incubated at 37° C. at 180 rpm for 2-3 hours. When the OD600 nm value of the broth reached 1-2, cells were harvested by centrifugation at 5000 rpm for 10 min, and then resuspended in fresh TSB broth at a concentration of 1-5×10^8 CFU/mL. These suspensions were used as the bacterial suspensions for the BCT test.
(§2) BCT Test: Test compositions at a range of concentrations (either combinations of more than one perfume ingredient, and comparative compositions comprising the single perfume ingredients) were prepared in ethanol. Five replicates of each test composition were added into 96-well microtiter plates (120 μl per well), with row B containing control compositions containing the ethanol solution alone. 120 μl of bacterial cell suspensions at a concentration of approximately 1×10^8 bacteria per mL (as prepared above) were added to each well of the microtiter plate. The bacterial suspensions were incubated with the test solutions for 45, 60, or 120 seconds. Following the incubation of the bacterial suspensions with the test solutions, serial dilutions of the bacterial suspensions were generated (three serial 1:10 dilutions, followed by 17 serial 1:2 dilutions), in multiwell microtiter plates.
(§3) Each plate was sealed and incubated at 37° C. under agitation (180 rpm). After incubation, the turbidity of the wells (OD600 nm) was determined using a Tecan microplate reader. Turbid wells were regarded as positive growth, due to the presence of viable cells. The total number of viable cells (log CFU) for each sample was calculated. And the log reduction for each test composition at the final concentration (dose) was calculated against the control sample of the ethanol solution.
(§4) Determination of Synergy via the Combination Index (CI): The CI was calculated using Compusyn software (ComboSyn, Inc., as created by Dr. Dorothy Chou in 2005), according to the manufacturer's instructions. The concentration of each test composition (combinations of more than one perfume ingredient, and comparative compositions comprising the single perfume ingredients used to generate the combination) and their corresponding effect fraction was entered, and the corresponding CI calculated.
(§5) When the calculated CI values were less than 0.9, the combination of perfume ingredients was regarded as having synergistic effect. When the calculated CI was between 1.0 a 0.9, the combination of perfume ingredients was regarded as having an additive effect. When the calculated CI was greater than 1.0, the combination of perfume ingredients was regarded as having an antagonistic effect.

S. aureus ATCC 6538 = experiment: BCT test (bacterial contact time), 60 s, log reduction / effect fraction; CI by Compusyn; format: cell-based, Staphylococcus aureus; conditions: Staphylococcus aureus, ATCC6538, 1 min, 60 s, in 25% EtOH
Description: as §1, §2, §3, §4, §5

[1] = test system: Pseudomonas aeruginosa ATCC 15442; experiment: as above; format: cell-based; conditions: BCT 60 s, in 25% EtOH
Description: as §1, §2, §3, §4, §5

## O=Cc1ccc2c(c1)OCO2 [Heliotropine, 1,3-benzodioxole-5-carbaldehyde]
E. coli ATCC 10536; Escherichia coli, ATCC10536, 45 s, dose 0.450 % w/v
  log reduction at 0.45 % strength: 0.1
E. coli ATCC 10536; Escherichia coli, ATCC10536, 45 s, dose 0.550 % w/v
  log reduction at 0.55 % strength: 5.3
E. coli ATCC 10536; Escherichia coli, ATCC10536, 45 s, dose 0.600 % w/v
  log reduction at 0.6 % strength: 7.3
E. coli ATCC 10536; dose 0.450 % w/v
  Log reduction: 0.1
S. aureus ATCC 6538; dose 0.500 % w/v
  log reduction at 0.5 % strength: 0.7
S. aureus ATCC 6538; dose 0.600 % w/v
  log reduction at 0.6 % strength: 2.7
S. aureus ATCC 6538; dose 0.700 % w/v
  log reduction at 0.7 % strength: 6.1
S. aureus ATCC 6538; dose 0.750 % w/v
  log reduction at 0.75 % strength: 7.1
S. aureus ATCC 6538; dose 1.000 % w/v
  log reduction at 1 % strength: 7.1
[1]; Dose 0.2 % w/v
  Log reduction: 0.00
[1]; Pseudomonas aeruginosa, ATCC15442, 1 min, Dose 0.2 % w/v
  log reduction at 0.2 % strength: 0
[1]; Pseudomonas aeruginosa, ATCC15442, 1 min, Dose 0.3 % w/v
  log reduction at 0.3 % strength: 0.6
[1]; Pseudomonas aeruginosa, ATCC15442, 1 min, Dose 0.4 % w/v
  log reduction at 0.4 % strength: 3.4
[1]; Pseudomonas aeruginosa, ATCC15442, 1 min, Dose 0.45 % w/v
  log reduction at 0.45 % strength: 4.1
[1]; Pseudomonas aeruginosa, ATCC15442, 1 min, Dose 0.55 % w/v
  log reduction at 0.55 % strength: 7.6

— patent US12419305B2, “Antimicrobial compositions” (Firmenich SA, priority 2018, dated 2025)
